Test results: patent publication US8779005B2, “Salts of desvenlafaxine and a method of their preparation” (Zentiva k.s., priority 2009, dated 2014)

Assays:
[1] = Measurement of the dissolution rate (USP Wood Apparatus, rotary disk method); type: physicochemical; settings: for Dissolution rate constants at pH 2: pH 2 (0.01 M HCl), 37° C.; for Dissolution rate constants at pH 2 / Dissolution rate constants at pH 6.8: rotary disk; for Dissolution rate constants at pH 6.8: phosphate buffer of pH 6.8, 37° C.
Experimental: Measurement of the Dissolution Rate The dissolution rate of desvenlafaxine salts (Table 2) in water at various pH values was measured in a Varian-Vankel System, USP Wood Apparatus (rotary disk method). A disk with the diameter of 5 mm was prepared by compression from about 0.2 g of the substance.

[2] = Measurement of equilibrium solubility; settings: 24-hour stirring; for Equilibrium solubility at pH 2: pH 2 (0.01 M HCl), 25° C.; for Equilibrium solubility at pH 6.8: phosphate buffer of pH 6.8, 25° C.; for solubility thermodynamic at 24 h: 25 °C, thermodynamic from solid
[3] = in vivo; cited from earlier work
[4] = dihydrate, Hemioxalate Trihydrate
[5] = 0.01 M HCl, pH 2, simulated gastric fluid, Equilibrium solubility at pH 2, pH 2 (0.01 M HCl)
[6] = phosphate buffer, pH 6.8, aqueous buffer, Equilibrium solubility at pH 6.8, phosphate buffer of pH 6.8, 25° C.

Dissolution rate constants at pH 2 [1] [mg/cm^2/min]	Dissolution rate constants at pH 6.8 [1] [mg/cm^2/min]	Equilibrium solubility at pH 2 [2] [mg/ml]	Equilibrium solubility at pH 6.8 [2] [mg/ml]	Dissolution rate constants at pH 2 ([1]; Hemioxalate Trihydrate) [mg/cm^2/min]	Dissolution rate constants at pH 6.8 ([1]; Hemioxalate Trihydrate) [mg/cm^2/min]	Equilibrium solubility at pH 2 [2, 4] [mg/ml]	Equilibrium solubility at pH 6.8 [2, 4] [mg/ml]	solubility thermodynamic at 24 h [2, 5] [mg/mL]	solubility thermodynamic at 24 h [2, 6] [mg/mL]	Dissolution speed in water relative to hydrogen fumarate ([1]; in water, compared with hydrogen fumarate)	SMILES	Biological availability (absorption of desvenlafaxine in rat intestine) relative to hydrogen fumarate [3]
0.6	0.2	2	4	–	–	–	–	–	–	–	CN(C)CC(c1ccc(O)cc1)C1(O)CCCCC1 (centres unmarked) [Base, Desvenlafaxine]	–
6.6	5.9	92	80	–	–	–	–	–	–	–	CN(C)CC(c1ccc(O)cc1)C1(O)CCCCC1 (centres unmarked) [Hemioxalate, anhydrous, Anhydrous Desvenlafaxine Hemioxalate]	–
–	–	–	–	>10	>10	86	71	–	–	–	CN(C)CC(c1ccc(O)cc1)C1(O)CCCCC1 (centres unmarked) [Hemioxalate, hydrate, Desvenlafaxine Hemioxalate Trihydrate]	–
0.8	0.8	–	–	–	–	–	–	8	8	–	CN(C)CC(c1ccc(O)cc1)C1(O)CCCCC1.O=C(O)/C=C/C(=O)O (centres unmarked) [Hydrogen fumarate hydrate, Desvenlafaxine hydrogen fumarate]	–
7.1	6.0	–	–	–	–	–	–	89	63	–	CN(C)CC(c1ccc(O)cc1)C1(O)CCCCC1.O=C(O)C(=O)O (centres unmarked) [Hydrogen oxalate hydrate, Desvenlafaxine Hydrogen Oxalate Hydrate]	–
3.1	3.2	–	–	–	–	–	–	53	58	approximately twice as fast	CN(C)CC(c1ccc(O)cc1)C1(O)CCCCC1.O=C(O)CCC(=O)O (centres unmarked) [Hydrogen succinate hydrate, Desvenlafaxine hydrogen succinate]	roughly three times higher
